We go through 9 molecules from US20070043076A1, “Substituted 2-arylmethylene-n-aryl-n'aryl-malonamides and analogs as activators of caspases and inducers of apoptosis” (priority 2003, published 2007).

Assay [1] relates to T-47D. Kind of assay: Caspase cascade activation (Ac-DEVD-R110 fluorogenic substrate) in T-47D cells. The assay is classed as cell-based, Human. Conditions: 24 h incubation; for Caspase Activity Ratio: ratio of net RFU to that of control samples; for EC50: Homo sapiens, T47D, 0.16 to 10 μM final, read-out: Caspase potency EC50. How it is done:
(§1) Human breast cancer cell lines T-47D and ZR-75-1 were grown according to media component mixtures designated by American Type Culture Collection +10% FCS (Invitrogen Corporation), in a 5% CO2-95% humidity incubator at 37° C. T-47D and ZR-75-1 cells were maintained at a cell density between 30 and 80% confluency and for HL-60 at a cell density of 0.1 to 0.6×10^6 cells/mL. Cells were harvested at 600×g and resuspended at 0.65×10^6 cells/mL into appropriate media +10% FCS. An aliquot of 45 μL of cells was added to a well of a 96-well microtiter plate containing 5 μL of a 10% DMSO in RPMI-1640 media solution containing 1.6 to 100 μM of N,N′-bis-(3-trifluoromethyl-phenyl)-2-(4-isopropyl-benzylidene)-malonamide or other test compound (0.16 to 10 μM final). An aliquot of 45 μL of cells was added to a well of a 96-well microtiter plate containing 5 μL of a 10% DMSO in RPMI-1640 media solution without test compound as the control sample. The samples were mixed by agitation and then incubated at 37° C. for 24 h in a 5% CO2-95% humidity incubator. After incubation, the samples were removed from the incubator and […] of a solution containing 20 μM of N-(Ac-DEVD)-N′-ethoxycarbonyl-R110 fluorogenic substrate (SEQ ID NO:1) (Cytovia, Inc.; U.S. Pat. No. 6,335,429), 20% sucrose (Sigma), 20 mM DTT (Sigma), 200 mM NaCl (Sigma), 40 mM Na PIPES buffer pH 7.2 (Sigma), and 500 μg/mL lysolecithin (Calbiochem) was added. The samples were mixed by agitation and incubated at room temperature. Using a fluorescent plate reader (Model 1420 Wallac Instruments), an initial reading (T=0) was made approximately 1-2 min after addition of the substrate solution, employing excitation at 485 nm and emission at 530 nm, to determine the background fluorescence of the control sample. After approximately 3 h of incubation, the samples were read for fluorescence as above (T=3 h).
(§2) The relative Fluorescence Unit values (RFU) were used to calculate the sample readings as follows: RFU(T=3h)−Control RFU(T=0)=Net RFU(T=3h)
(§3) The activity of caspase cascade activation was determined by the ratio of the net RFU value for N,N′-bis-(3-trifluoromethyl-phenyl)-2-(4-isopropyl-benzylidene)-malonamide to that of control samples. The EC50 (nM) was determined by a sigmoidal dose-response calculation (Prism 2.0, GraphPad Software Inc.).

A further assay relates to ZR-75-1. Briefly: Caspase cascade activation (Ac-DEVD-R110 fluorogenic substrate) in ZR-75-1 cells. The assay is classed as cell-based, Human. The following applies: 24 h incubation; for Caspase Activity Ratio: ratio of net RFU to that of control samples; for EC50: Homo sapiens, 0.16 to 10 μM final, read-out: Caspase potency EC50. How it is done: as §1, §2, §3
Assay [2] has as its system T-47D. Kind of assay: Inhibition of cell proliferation (GI50, CellTiter 96 AQueous One) in T-47D cells. The class given is cell-based. Conditions: Homo sapiens, T47D, 48 h incubation, read-out: GI50 (dose for 50% inhibition of cell proliferation). How it is done:
(§4) T-47D and DLD-1 cells were grown and harvested as in Example 105. An aliquot of 90 μL of cells (2.2×10^4 cells/mL) was added to a well of a 96-well microtiter plate containing 10 μl of a 10% DMSO in RPMI-1640 media solution containing 1 nM to 100 μM of N,N′-bis-(3-trifluoromethyl-phenyl)-2-(4-isopropyl-benzylidene)-malonamide (0.1 nM to 10 μM final). An aliquot of 90 μL of cells was added to a well of a 96-well microtiter plate containing 10 μL of a 10% DMSO in RPMI-1640 media solution without compound as the control sample for maximal cell proliferation (AMax). The samples were mixed by agitation and then incubated at 37° C. for 48 h in a 5% CO2-95% humidity incubator. After incubation, the samples were removed from the incubator and 20 μL of CellTiter 96 AQUEOUS One Solution Cell Proliferation™ reagent (Promega) was added. The samples were mixed by agitation and incubated at 37° C. for 2-4 h in a 5% CO2-95% humidity incubator. Using an absorbance plate reader (Model 1420 Wallac Instruments), an initial reading (T=0) was made approximately 1-2 min after addition of the solution, employing absorbance at 490 nm. This determines the possible background absorbance of the test compounds. No absorbance for N,N′-bis-(3-trifluoromethyl-phenyl)-2-(4-isopropyl-benzylidene)-malonamide was found at 490 nm. After the 2-4 h incubation, the samples were read for absorbance as above (ATest).
(§5) Baseline for GI50 (dose for 50% inhibition of cell proliferation) of initial cell numbers were determined by adding an aliquot of 90 μL of cells or 90 μL of media, respectively, to wells of a 96-well microtiter plate containing 10 μL of a 10% DMSO in RPMI-1640 media solution. The samples were mixed by agitation and then incubated at 37° C. for 0.5 h in a 5% CO2-95% humidity incubator. After incubation, the samples were removed from the incubator and 20 μL of CellTiter 96 AQUEOUS One Solution Cell Proliferation™ reagent (Promega) was added. The samples were mixed by agitation and incubated at 37° C. for 2-4 h in a 5% CO2-95% humidity incubator. Absorbance was read as above, (AStart) defining absorbance for initial cell number used as baseline in GI50 determinations.
(§6) GI50 (dose for 50% inhibition of cell proliferation) is the concentration where [(ATest−AStart)/(AMax−AStart)]=0.5.

In another assay the test system is DLD-1. Kind of assay: Inhibition of cell proliferation (GI50, CellTiter 96 AQueous One) in DLD-1 cells. The following applies: Homo sapiens, 48 h incubation, read-out: GI50 (dose for 50% inhibition of cell proliferation). The class given is cell-based. How it is done:
as §4, §5, §6

The next assay concerns Jurkat cells. Briefly: Drug induced apoptosis in Jurkat cells (propidium iodide flow cytometry). The class given is cell-based. The following applies: 24 h. Here is the method:
FIGS. 1A-C are graphs showing drug induced apoptosis in Jurkat cells. FIG. 1A: control cells (DMSO treated) showing most of the cells in G1 (M2). FIG. 1B: cells treated with 0.5 μM of N,N′-bis-(3-trifluoromethyl-phenyl)-2-(4-isopropyl-benzylidene)-malonamide for 24 h showing 50% of the cells in M1 (subdiploid apoptotic cells). FIG. 1C: cells treated with 1 μM of N,N′-bis-(3-trifluoromethyl-phenyl)-2-(4-isopropyl-benzylidene)-malonamide for 24 h showing 77% of the cells in M1 (subdiploid apoptotic cells).
(§7) Jurkat cells were incubated with N,N′-bis-(3-trifluoromethyl-phenyl)-2-(4-isopropyl-benzylidene)-malonamide (0.5 μM and 1 μM) for 24 h under normal growth conditions; control cultures were treated with DMSO vehicle. Cells were harvested at 1200 rpm and washed twice with 5 mM EDTA/PBS. Cells were then resuspended in 300 μl EDTA/PBS and […] of 100% ethanol, vortexed and incubated at room temperature for 1 h. Samples were spun down at 12000 rpm for 5 min and the supernatant was removed. A solution containing 100 μg/ml of propidium iodide and 1 mg/ml of RNAse A (fresh) was added to the samples and incubated for 1 h at room temperature. Samples were then transferred to 12×75 mm polystyrene tubes and analysed on a flow cytometer. All flow cytometry analyses were performed on FACScalibur (Becton Dickinson) using Cell Quest analysis software.

The test system of a further assay is T47D cells. Kind of assay: Drug induced apoptosis in T47D cells (propidium iodide flow cytometry). The following applies: 1.7 μM, 24 h. The assay is classed as cell-based, Human. How it is done: FIGS. 2A-B are graphs showing drug induced apoptosis in T47D cells. FIG. 2A: control cells (DMSO treated) showing most of the cells in G1 (M2). FIG. 2B: cells treated with 1.7 μM of N,N′-bis-(3-trifluoromethyl-phenyl)-2-(4-isopropyl-benzylidene)-malonamide for 24 h showing 88% of the cells in M1 (subdiploid apoptotic cells).
as §7
T47D breast cancer cell line was maintained and harvested as described in Example 105. […] Cells were harvested and treated with propidium iodide and analysed on a flow cytometer as described in Example 107.
In general terms: In flow cytometry, cells or beads pass a laser one at a time.

For orientation: EC50 means the concentration that produces a half-maximal response. As to `O=C(Nc1cccc(C(F)(F)F)c1)C(=Cc1ccc(Cl)cc1Cl)C(=O)Nc1cccc(C(F)(F)F)c1` [Example 2, N,N′-Bis-(3-trifluoromethyl-phenyl)-2-(2,4-dichloro-benzylidene)-malonamide], the “Caspase Activity Ratio” value in the assay on T-47D [1] is listed as 16; with ZR-75-1, 18. The EC50 in the assay on T-47D [1] came out at 647 nM; in the assay with ZR-75-1, 906 nM. The GI50 turned out to be 150 nM with T-47D [2] and 200 nM with DLD-1.

`CC(C)c1ccc(C=C(C(=O)Nc2cccc(C(F)(F)F)c2)C(=O)Nc2cccc(C(F)(F)F)c2)cc1` [Example 3, N,N′-Bis-(3-trifluoromethyl-phenyl)-2-(4-isopropyl-benzylidene)-malonamide]: the results for the “Caspase Activity Ratio” value in the assay on T-47D [1] and in the assay with ZR-75-1 were 15 and 17, respectively. The EC50 amounted to 867 nM in the assay with T-47D [1] and 1400 nM in the assay with ZR-75-1. The figures for the GI50 in the assay on T-47D [2] and with DLD-1 were 180 nM and 200 nM, respectively. The “induction of apoptosis (in words)” value is given as “induces massive apoptosis” in the assay with Jurkat cells (0.5 μM and 1 μM); “induces massive apoptosis” with T47D cells. Moreover, the “cells in M1 (subdiploid apoptotic cells)” value with Jurkat cells (0.5 μM) turned out to be 50%; in the assay on Jurkat cells (1 μM), 77%; in the assay with T47D cells, 88%.

On to `O=C(Nc1cccc(C(F)(F)F)c1)C(=Cc1ccncc1)C(=O)Nc1cccc(C(F)(F)F)c1` [Example 8, N,N′-Bis-(3-trifluoromethyl-phenyl)-2-(4-pyridyl-methylene)-malonamide], for which the “Caspase Activity Ratio” value came out at 17 in the assay with T-47D [1] and 9.5 in the assay on ZR-75-1. Moreover, the EC50 was found to be 4050 nM in the assay on T-47D [1] and 4600 nM in the assay with ZR-75-1. Further, the GI50 worked out at 1570 nM in the assay on T-47D [2] and 1530 nM in the assay with DLD-1.

For `CC(C)c1ccc(C=C(C(=O)Nc2cccc(Cl)c2)C(=O)Nc2cccc(Cl)c2)cc1` [Example 14, N,N′-Bis-(3-chloro-phenyl)-2-(4-isopropyl-benzylidene)-malonamide], the “Caspase Activity Ratio” value turned out to be 21 in the assay on T-47D [1] and 7.2 in the assay with ZR-75-1. The EC50 in the assay on T-47D [1] is 738 nM; with ZR-75-1 it was 1980 nM. For the same molecule, the GI50 came out at 1190 nM in the assay with T-47D [2] and 1230 nM with DLD-1.

With `O=C(Nc1cccc(C(F)(F)F)c1)C(=Cc1ccccc1)C(=O)Nc1cccc(C(F)(F)F)c1` [Example 15, N,N′-Bis-(3-trifluoromethyl-phenyl)-2-benzylidene-malonamide], the figures for the “Caspase Activity Ratio” value in the assay with T-47D [1] and with ZR-75-1 were 16 and 6, respectively. Further, the EC50 turned out to be 1380 nM in the assay on T-47D [1] and 2790 nM with ZR-75-1. Moreover, the GI50 with T-47D [2] stood at 46 nM; with DLD-1, 1340 nM.

With `O=C(Nc1cccc(C(F)(F)F)c1)C(=Cc1cnc[nH]1)C(=O)Nc1cccc(C(F)(F)F)c1` [Example 16, N,N′-Bis-(3-trifluoromethyl-phenyl)-2-(3H-imidazol-4-yl-methylene)-malonamide], the GI50 was 1720 nM in the assay on T-47D [2] and 1680 nM with DLD-1.

On to `CC(C)c1ccc(C=C(C(=O)Nc2cccc(O)c2)C(=O)Nc2cccc(O)c2)cc1` [Example 18, N,N′-Bis-(3-hydroxy-phenyl)-2-(4-isopropyl-benzylidene)-malonamide], for which the results for the GI50 with T-47D [2] and with DLD-1 were 467 nM and 1650 nM, respectively.

Take `CC(C)c1ccc(C=C(C(=O)Nc2cccc(Br)c2)C(=O)Nc2cccc(Br)c2)cc1` [Example 20, N,N′-Bis-(3-bromo-phenyl)-2-(4-isopropyl-benzylidene)-malonamide]: the GI50 in the assay on T-47D [2] came to 1520 nM; in the assay with DLD-1 it was 1660 nM.

Take `CCc1ccc(C=C(C(=O)Nc2cccc(C(F)(F)F)c2)C(=O)Nc2cccc(C(F)(F)F)c2)cc1` [Example 26, N,N′-Bis-(3-trifluoromethyl-phenyl)-2-(4-ethyl-benzylidene)-malonamide]: the GI50 is 666 nM in the assay on T-47D [2] and 1650 nM with DLD-1.
